Reference: ChEMBL document CHEMBL1201862, “PubChem BioAssay data set” (2004)
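These data come from cells grown in 96-well plates and exposed to compound for 48 hours at five concentrations. At the GI50, growth is halved.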 Activity calls are given as the source filed them. Cut-off read from the data, not from the text of the source: active = GI50 up to about 1.1 µM and inactive = higher.

Tests used:
Assay in all cases: inhibition of tumour cell growth, NCI panel, 48 h
786-0 = system: 786-0
A498 = system: A498
A549 = system: A549
BT-549 = system: BT-549
EKVX = system: EKVX
HCT-116 = system: HCT-116
HOP-92 = system: HOP-92
HT-29 = system: HT-29
Hs-578T = system: Hs-578T
LOX IMVI = system: LOX IMVI
MDA-MB-231 = system: MDA-MB-231
MDA-MB-435 = system: MDA-MB-435
MDA-N = system: MDA-N
NCI-H23 = system: NCI-H23
RPMI-8226 = system: RPMI-8226
SK-MEL-2 = system: SK-MEL-2
SK-MEL-5 = system: SK-MEL-5
SW-620 = system: SW-620
TK-10 = system: TK-10
HCC 2998 = system: HCC 2998

Measured: GI50

Cn1c(N)c(/N=N/c2ccc(S(N)(=O)=O)cc2)c(=O)n(C)c1=O
inactive: 786-0 53.1 µM | A498 > 100 µM | A549 > 100 µM | BT-549 > 100 µM | EKVX > 100 µM | HCT-116 > 100 µM | HOP-92 > 100 µM | HT-29 > 100 µM | Hs-578T 22.3 µM | LOX IMVI > 100 µM | MDA-MB-231 > 100 µM | MDA-MB-435 > 100 µM | MDA-N > 100 µM | NCI-H23 > 100 µM | RPMI-8226 > 100 µM | SK-MEL-2 > 100 µM | SK-MEL-5 > 100 µM | SW-620 > 100 µM | TK-10 > 100 µM

N#C/C(=C(\O)C(=O)O)c1ccc(-c2cccc3ccccc23)cc1
inactive: 786-0 > 100 µM | A498 > 100 µM | A549 > 100 µM | BT-549 > 100 µM | EKVX 59.4 µM | HCT-116 > 100 µM | HOP-92 > 100 µM | HT-29 > 100 µM | Hs-578T > 100 µM | LOX IMVI > 100 µM | MDA-MB-231 > 100 µM | MDA-MB-435 > 100 µM | MDA-N > 100 µM | NCI-H23 > 100 µM | RPMI-8226 29 µM | SK-MEL-2 > 100 µM | SK-MEL-5 > 100 µM | SW-620 > 100 µM | TK-10 > 100 µM

CCOC(=O)c1ccc(NCC#CCN2CCOCC2)cc1
inactive: 786-0 > 100 µM | A498 > 100 µM | A549 83.9 µM | BT-549 > 100 µM | EKVX 57.9 µM | HCT-116 53 µM | HOP-92 > 100 µM | HT-29 69.2 µM | Hs-578T > 100 µM | LOX IMVI > 100 µM | MDA-MB-231 > 100 µM | MDA-MB-435 > 100 µM | MDA-N 29.4 µM | NCI-H23 > 100 µM | RPMI-8226 > 100 µM | SK-MEL-2 > 100 µM | SK-MEL-5 26.9 µM | SW-620 > 100 µM

COC(=O)c1ccc(NCc2cc(O)ccc2O)cc1
active: BT-549 1.04 µM
inactive: 786-0 9.4 µM | A498 16.8 µM | A549 14.5 µM | EKVX 15.6 µM | HCC 2998 14.4 µM | HCT-116 17.4 µM | HOP-92 13.3 µM | HT-29 23.1 µM | Hs-578T 3.93 µM | LOX IMVI 10.2 µM | MDA-MB-435 4.63 µM | MDA-N 5.31 µM | NCI-H23 15.4 µM | RPMI-8226 1.69 µM | SK-MEL-2 16 µM | SK-MEL-5 9.71 µM | SW-620 9.18 µM | TK-10 17.5 µM

CN1CCN(Cc2cc3c(nn2)-c2ccccc2C3=O)CC1
inactive: 786-0 40.6 µM | A549 > 100 µM | BT-549 53.6 µM | EKVX 46.3 µM | HCT-116 30.4 µM | HOP-92 > 100 µM | HT-29 53 µM | Hs-578T > 100 µM | MDA-MB-231 > 10 µM | MDA-MB-435 23.7 µM | MDA-N 24.4 µM | NCI-H23 35 µM | RPMI-8226 > 100 µM | SK-MEL-2 > 100 µM | SK-MEL-5 16.9 µM | SW-620 52.7 µM | TK-10 > 100 µM

CC(SCc1ccccc1)C(=O)O (stereo unspecified)
inactive: 786-0 > 100 µM | A498 > 100 µM | A549 > 100 µM | BT-549 > 100 µM | EKVX > 100 µM | HCT-116 > 100 µM | HOP-92 > 100 µM | HT-29 > 100 µM | Hs-578T > 100 µM | LOX IMVI > 100 µM | MDA-MB-231 > 100 µM | MDA-MB-435 > 100 µM | MDA-N > 100 µM | NCI-H23 > 100 µM | RPMI-8226 > 100 µM | SK-MEL-2 > 100 µM | SK-MEL-5 > 100 µM | SW-620 > 100 µM | TK-10 > 100 µM

C/C(=N\c1ccc(N(C)C)cc1)c1ccccc1
inactive: 786-0 19.8 µM | A498 > 100 µM | A549 27.9 µM | BT-549 18.9 µM | EKVX 72.3 µM | HCC 2998 44.6 µM | HCT-116 16.9 µM | HT-29 30.5 µM | Hs-578T 22.1 µM | MDA-MB-231 18.3 µM | MDA-N 21.9 µM | NCI-H23 21.1 µM | SK-MEL-2 11.2 µM | SK-MEL-5 15.9 µM | SW-620 17.9 µM | TK-10 20.8 µM

CNC(=O)N1N[C@H](c2ccccc2)[C@@H]1c1ccccc1.OB(O)O
inactive: 786-0 32.4 µM | A498 20.6 µM | A549 28.4 µM | BT-549 19.3 µM | EKVX 22.2 µM | HCC 2998 31 µM | HCT-116 17.9 µM | HOP-92 26.3 µM | HT-29 16.4 µM | Hs-578T 22.5 µM | LOX IMVI 18 µM | MDA-MB-231 28.8 µM | MDA-N 28.1 µM | NCI-H23 22.6 µM | SK-MEL-2 15.3 µM | SK-MEL-5 16.3 µM | SW-620 28.4 µM | TK-10 40.4 µM

O=C1C=CC(=O)c2c1c1c(c3c2C2c4ccccc4C3c3ccccc32)C2c3ccccc3C1c1ccccc12
inactive: 786-0 1.45 µM | A498 2.9 µM | A549 8.69 µM | BT-549 3.26 µM | EKVX 3.66 µM | HCC 2998 6.92 µM | HCT-116 1.56 µM | HT-29 2.11 µM | Hs-578T 4.29 µM | LOX IMVI 1.64 µM | MDA-MB-435 1.75 µM | MDA-N 1.55 µM | NCI-H23 2.72 µM | RPMI-8226 1.79 µM | SK-MEL-2 1.89 µM | SK-MEL-5 3.3 µM | TK-10 1.87 µM
active: HOP-92 1.08 µM | SW-620 0.914 µM

O=C1CCCC(=O)N1n1c(Cc2ccc(Cl)cc2)n[nH]c1=O
inactive: 786-0 > 100 µM | A549 > 100 µM | BT-549 > 100 µM | EKVX > 100 µM | HCC 2998 > 100 µM | HCT-116 > 100 µM | HT-29 > 100 µM | Hs-578T > 100 µM | LOX IMVI > 100 µM | MDA-MB-231 > 100 µM | MDA-MB-435 > 100 µM | MDA-N > 100 µM | NCI-H23 > 100 µM | RPMI-8226 > 100 µM | SK-MEL-2 > 100 µM | SK-MEL-5 > 100 µM | SW-620 > 100 µM | TK-10 > 100 µM

CN(C)CCCN=C(N)N
inactive: 786-0 > 100 µM | A498 > 100 µM | A549 > 100 µM | BT-549 > 100 µM | EKVX > 100 µM | HCT-116 > 100 µM | HOP-92 > 100 µM | HT-29 > 100 µM | Hs-578T > 100 µM | LOX IMVI > 100 µM | MDA-MB-231 > 100 µM | MDA-MB-435 > 100 µM | MDA-N > 100 µM | NCI-H23 > 100 µM | RPMI-8226 > 100 µM | SK-MEL-2 > 100 µM | SK-MEL-5 > 100 µM | SW-620 > 100 µM | TK-10 > 100 µM

CN(C)c1ccc(/N=N/c2ccc3[nH]cnc3c2)cc1
inactive: 786-0 18.2 µM | A498 20.4 µM | A549 29.7 µM | BT-549 32.5 µM | EKVX 33.5 µM | HCT-116 18 µM | HT-29 16.1 µM | Hs-578T 34.7 µM | MDA-MB-231 15.1 µM | MDA-MB-435 19.5 µM | MDA-N 26.9 µM | NCI-H23 45.5 µM | RPMI-8226 19.5 µM | SK-MEL-2 58.7 µM | SK-MEL-5 30.3 µM | SW-620 29.6 µM | TK-10 22.5 µM

CCSc1nnc2c(-c3ccccc3)n[nH]c2n1
inactive: 786-0 86.7 µM | A549 > 100 µM | BT-549 > 100 µM | EKVX 16 µM | HCT-116 > 100 µM | HOP-92 37.4 µM | HT-29 > 100 µM | Hs-578T 30.4 µM | LOX IMVI > 100 µM | MDA-MB-231 > 100 µM | MDA-MB-435 > 100 µM | MDA-N > 100 µM | NCI-H23 > 100 µM | RPMI-8226 > 100 µM | SK-MEL-2 > 100 µM | SK-MEL-5 > 100 µM | SW-620 > 100 µM | TK-10 > 100 µM

CN1CCN(c2ccc3nc(C4=C(O)C(=O)c5c(nc(CO)n5C)C4=O)[nH]c3n2)CC1
inactive: 786-0 > 100 µM | A549 > 100 µM | BT-549 > 100 µM | EKVX > 100 µM | HCC 2998 > 100 µM | HCT-116 > 100 µM | HOP-92 > 100 µM | HT-29 > 100 µM | Hs-578T > 100 µM | LOX IMVI > 100 µM | MDA-MB-231 > 100 µM | MDA-MB-435 > 100 µM | NCI-H23 > 100 µM | RPMI-8226 93.8 µM | SK-MEL-2 55.1 µM | SW-620 > 100 µM

C1CC2CN(CCCN3CCOCC3)C(C1)O2 (stereo unspecified)
inactive: 786-0 > 100 µM | A498 > 100 µM | A549 > 100 µM | BT-549 > 100 µM | EKVX > 100 µM | HCT-116 > 100 µM | HOP-92 > 100 µM | HT-29 > 100 µM | Hs-578T > 100 µM | LOX IMVI > 100 µM | MDA-MB-231 > 100 µM | MDA-MB-435 > 100 µM | MDA-N > 100 µM | NCI-H23 > 100 µM | RPMI-8226 > 100 µM | SK-MEL-2 > 100 µM | SK-MEL-5 > 100 µM | SW-620 > 100 µM | TK-10 > 100 µM
